This test has as its system Ratte. The test can be described thus: Abortive effect in pregnant rats (measure of antigestagenic activity). The format is in vivo. Particulars: for n Abort / n Gesamt: subcutan, d5 p.c. to d7 p.c., uteri examined d9 p.c., absence of implants counted as abortion. An excerpt:
Zur Kennzeichnung der antigestagenen Wirkung wurde die abortive Wirkung bestimmt.
Die Versuche wurden an weiblichen Ratten im Gewicht von ca. 200 g durchgeführt. Nach erfolgter Anpaarung wurde der Schwangerschaftsbeginn durch Nachweis von Spermien in Vaginalabstrichen gesichert. Der Tag des Spermiennachweises gilt als Tag 1 der Gravidität (= dl p.c.).
Die Behandlung der Tiere mit der jeweils zu testenden Substanz bzw. dem Lösungsmittel erfolgte nach der Nidation der Blastocysten von d5 p.c. bis d7 p.c.
An d9 p.c. wurden die Tiere getötet und die Uteri auf Implantate und Resorptionsstellen hin untersucht. Von allen Uteri wurden Fotos angefertigt. Das Fehlen von Implantaten wurde als Abort gewertet.
Die Testsubstanzen wurden in einem Benzylbenzoat-Rizinusöl-Gemisch (Verhältnis 1 + 9) gelöst. Das Vehikelvolumen pro Einzeldosis betrug 0,2 ml. Die Behandlung erfolgte subcutan.

The values below come from EP0127864A2, “D-homo-4,9,16-estratrienes, their preparation and pharmaceutical compositions containing them” (SCHERING AKTIENGESELLSCHAFT, priority 1983, dated 1984).

Regarding `CC#C[C@]1(O)C=CC[C@H]2[C@@H]3CCC4=CC(=O)CCC4=C3[C@@H](c3ccc(N(C)C)cc3)C[C@@]21C` [A, 11ß-(4-Dimethylaminophenyl)-17aß-hydroxy-17aα-(1-propinyl)-U-homo-4,9,16-estratrien-3-on], the “Wirksamkeit (Abortauslösung)” value (Dosierung 1,0 mg, result in words) is “voll wirksam”. Besides, the “n Abort / n Gesamt” value by setting is: (Dosis 0.3 mg/Tier/Tag) 2/4; (Dosis 1.0 mg/Tier/Tag) 4/4; (Dosis 3.0 mg/Tier/Tag) 4/4; (Dosis 10.0 mg/Tier/Tag) 4/4.
Compound `CC#C[C@]1(O)CC[C@H]2[C@@H]3CCC4=CC(=O)CCC4=C3[C@@H](c3ccc(N(C)C)cc3)C[C@@]21C` [B, 11ß-(4-Dimethylaminophenyl)-17ß-hydroxy-17a-(propin-1-yl)-4,9(10)-estradien-3-on, reference compound] came in with an Aborte (Dosierung 1,0 mg) of 50%. The “n Abort / n Gesamt” value (Dosis 1.0 mg/Tier/Tag) is 2/4, the “n Abort / n Gesamt” value (Dosis 3.0 mg/Tier/Tag) is listed as 4/4 and the “n Abort / n Gesamt” value (Dosis 10.0 mg/Tier/Tag) is recorded as 4/4.
